Reference: patent publication US10765706B2, “Method of stem cell delivery into the brain during chronic disease using blood brain barrier permeabilizers” (University of South Florida, priority 2015, dated 2020)

Tests used:
Assay type in all cases: in vivo, Sprague-Dawley rats
[1] = system: middle cerebral artery occlusion (MCAO) stroke rats; experiment: Motor asymmetry, chronic stroke (treatment 1 month after MCAO), FIG. 1; conditions: intra-arterial, hUCBC only 2 million cells, combination 200,000 cells + 1.1 mol/L mannitol
Procedure: (§1) Adult Sprague-Dawley rats initially received sham surgery or experimental stroke via the one-hour middle cerebral artery occlusion (MCAO) model, as disclosed in Example 2. At 1 month after the MCAO surgery, stroke animals were randomly assigned to receive human umbilical cord stem cells only (2 million viable cells), mannitol only (1.1 mol/L mannitol at 4° C.), combined human umbilical cord stem cells (200,000 viable cells) and mannitol (1.1 mol/L mannitol at 4° C.), and vehicle (phosphate buffered saline, PBS) only.
(§2) The hUCBC (Saneron CCEL Therapeutics, Inc., Tampa, Fla.) were thawed at 37° C. Cells were washed and centrifuged three times (1000 rpm for 7 minutes). Viability was determined using the trypan blue dye exclusion method and cell concentration was adjusted to 10,000 cells/μl. A minimum of 85% viability post-thaw was required for a sample to be used for transplantation. For hUCBC+BBB, 200,000 hUCB cells were suspended in 10 μl PBS in a 28-gauge Hamilton syringe. For hUCBC only, 2×10^6 cells were suspended in […] PBS. The BBB only treatment was injected as prepared. Treatments were administered by intra-arterial injection into the internal carotid artery where the embolic filament was previously inserted. Infusion rate was 1 μl per minute as determined by using a micro-infusion pump.

[2] = system: middle cerebral artery occlusion (MCAO) stroke rats; experiment: Histological analysis of brain cell survival, chronic stroke, FIG. 2; conditions: treatment 1 month after MCAO
Procedure: The hUCBC (Saneron CCEL Therapeutics, Inc., Tampa, Fla.) were thawed at 37° C. Cells were washed and centrifuged three times (1000 rpm for 7 minutes). Viability was determined using the trypan blue dye exclusion method and cell concentration was adjusted to 10,000 cells/μl. A minimum of 85% viability post-thaw was required for a sample to be used for transplantation. For hUCBC+BBB, 200,000 hUCB cells were suspended in 10 μl PBS in a 28-gauge Hamilton syringe. For hUCBC only, 2×10^6 cells were suspended in XX μl PBS. The BBB only treatment was injected as prepared. Treatments were administered by intra-arterial injection into the internal carotid artery where the embolic filament was previously inserted. Infusion rate was 1 μl per minute as determined by using a micro-infusion pump.

[3] = system: middle cerebral artery occlusion (MCAO) stroke rats; experiment: Neurogenesis, chronic stroke, FIG. 7; conditions: treatment 1 month after MCAO
Procedure: as §1, §2

OC[C@@H](O)[C@@H](O)[C@H](O)[C@H](O)CO [mannitol]
motor asymmetry [1]: lowered the motor asymmetry slightly | cell survival (brain damage, peri-infarct area) [2]: significant brain damage | neurogenesis, increase above sham-operated rats [3]: without concomitant neurogenesis
